Experimental data taken from US20100267561A1, “HERBICIDAL PYRIDAZINONE DERIVATIVES” (priority 2007, published 2010).

Key:
Assay type in all cases: in vivo
[1] = test system: wheat (Triticum aestivum); assay: Test A pre-/postemergence plant response
Method in brief: (§1)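 Seeds sown in loam–sand blend; test chemicals in non-phytotoxic solvent with surfactant applied preemergence as directed soil spray and, concurrently, postemergence to plants 2–10 cm tall at one- to two-leaf stage. Greenhouse ~10 days, then visual injury rating vs untreated controls on 0–100 scale (0 = no effect, 100 = complete control).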

[2] = test system: morningglory (Ipomoea coccinea); assay: Test A pre-/postemergence plant response
Method in brief: as §1

[3] = test system: barnyardgrass (Echinochloa crus-galli); assay: Test A pre-/postemergence plant response
Method in brief: as §1

[4] = test system: pigweed (Amaranthus retroflexus); assay: Test A pre-/postemergence plant response
Method in brief: as §1

[5] = test system: giant foxtail (Setaria faberi); assay: Test A pre-/postemergence plant response
Method in brief: as §1

corn (Zea mays) = assay: Test A pre-/postemergence plant response
Method in brief: as §1

[6] = test system: velvetleaf (Abutilon theophrasti); assay: Test A pre-/postemergence plant response
Method in brief: as §1

[7] = test system: large crabgrass (Digitaria sanguinalis); assay: Test A pre-/postemergence plant response
Method in brief: as §1

[8] = test system: yellow nutsedge (Cyperus esculentus); assay: Test B pre-/postemergence plant response
Text: (§2) Seeds of plant species selected from blackgrass (Alopecurus myosuroides), downy bromegrass (Bromus tectorum), green foxtail (Setaria viridis), Italian ryegrass (Lolium multiflorum), wheat (Triticum aestivum), wild oat (Avena fatua), catchweed bedstraw (Galium aparine), bermudagrass (Cynodon dactylon), surinam grass (Brachiaria decumbens), cocklebur (Xanthium strumarium), corn (Zea mays), large crabgrass (Digitaria sanguinalis), woolly cupgrass (Eriochloa villosa), giant foxtail (Setaria faberii), goosegrass (Eleusine indica), johnsongrass (Sorghum halepense), kochia (Kochia scoparia), lambsquarters (Chenopodium album), morningglory (Ipomoea coccinea), eastern black (E.B.) nightshade (Solanum ptycanthum), yellow nutsedge (Cyperus esculentus), pigweed (Amaranthus retroflexus), common ragweed (Ambrosia elation), Russian thistle (Salsola iberica), soybean (Glycine max), common (oilseed) sunflower (Helianthus annuus), and velvetleaf (Abutilon theophrasti) were planted and treated preemergence with test chemicals formulated in a non-phytotoxic solvent mixture which included a surfactant.
(§3) At the same time, plants selected from these crop and weed species and also winter barley (Hordeum vulgare), canarygrass (Phalaris minor), chickweed (Stellaria media) and windgrass (Apera spica-venti) were treated with postemergence applications of some of the test chemicals formulated in the same manner. Plants ranged in height from 2 to 18 cm (1- to 4-leaf stage) for postemergence treatments.
(§4) Plant species in the flooded paddy test consisted of rice (Oryza sativa), umbrella sedge (Cyperus difformis), ducksalad (Heteranthera limosa) and barnyardgrass (Echinochloa crus-galli) grown to the 2-leaf stage for testing. At time of treatment, test pots were flooded to 3 cm above the soil surface, treated by application of test compounds directly to the paddy water, and then maintained at that water depth for the duration of the test. Treated plants and controls were maintained in a greenhouse for 13 to 15 days, after which time all species were compared to controls and visually evaluated. Plant response ratings, summarized in Table B, are based on a scale of 0 to 100 where 0 is no effect and 100 is complete control. A dash (-) response means no test result.

[9] = test system: catchweed bedstraw (Galium aparine); assay: Test B pre-/postemergence plant response; settings: Preemergence; for Galium plant response rating: 8 g ai/ha
Text: as §2, §3, §4

[10] = test system: blackgrass (Alopecurus myosuroides); assay: Test B pre-/postemergence plant response; settings: for Blackgrass plant response rating: 8 g ai/ha
Text: as §2, §3, §4

[11] = Postemergence, 31 g ai/ha, 0 to 100 scale (0 no effect, 100 complete control)
[12] = Postemergence, 125 g ai/ha, 0 to 100 scale, 0 no effect, 100 complete control
[13] = Preemergence, 31 g ai/ha, 0 to 100 scale, 0 is no effect, 100 is complete control
[14] = Preemergence, 125 g ai/ha, 0 to 100 scale (0 no effect, 100 complete control)
[15] = 8 g ai/ha, postemergence, 0-100 scale
[16] = Postemergence, 31 g ai/ha, scale 0 to 100
[17] = Postemergence, 62 g ai/ha, scale 0 to 100, 0 no effect, 100 complete control
[18] = Preemergence, 31 g ai/ha, scale 0 to 100 (0 no effect, 100 complete control)
[19] = Preemergence, 62 g ai/ha, 0 to 100 scale, 0 no effect, 100 complete control
[20] = Preemergence, 8 g ai/ha, scale 0 to 100
[21] = Postemergence, 16 g ai/ha, scale 0 to 100
[22] = Preemergence, 16 g ai/ha, scale 0 to 100 (0 no effect, 100 complete control)
[23] = Postemergence, 31 g ai/ha, scale 0 to 100, 0 no effect, 100 complete control
[24] = Preemergence, 31 g ai/ha, 0 to 100 scale, 0 no effect, 100 complete control
[25] = Preemergence, 62 g ai/ha, scale 0 to 100

With `CCc1cc(-c2ccc(Br)cc2)nn1-c1c(O)cnn(C)c1=O` [Compound 61] the “Plant response rating, Wheat” value [1, 11] was 80, the “Plant response rating, Wheat” value [1, 12] was 90 and the “Plant response rating, Wheat” value [1, 13] was 70. For the same compound, the “Plant response rating, Wheat” value [1, 14] was 90, the “Plant response rating, Morningglory” value [2, 11] was 0 and the “Plant response rating, Morningglory” value [2, 12] was 0. For the same compound, the “Plant response rating, Morningglory” value [2, 13] was 0, the “Plant response rating, Morningglory” value [2, 14] was 0 and the “Plant response rating, Barnyardgrass” value [3, 11] was 100. The “Plant response rating, Barnyardgrass” value [3, 12] was 100, the “Plant response rating, Barnyardgrass” value [3, 13] was 90 and the “Plant response rating, Barnyardgrass” value [3, 14] was 100. The “Plant response rating, Pigweed” value [4, 11] was 0, the “Plant response rating, Pigweed” value [4, 12] was 0 and the “Plant response rating, Pigweed” value [4, 13] was 0. For the same compound, the “Plant response rating, Pigweed” value [4, 14] was 0, the “Plant response rating, Foxtail, Giant” value [5, 11] was 100 and the “Plant response rating, Foxtail, Giant” value [5, 12] was 100. The “Plant response rating, Foxtail, Giant” value [5, 13] was 100, the “Plant response rating, Foxtail, Giant” value [5, 14] was 100 and the “Plant response rating, Corn” value (corn (Zea mays); [11]) was 100. The “Plant response rating, Corn” value (corn (Zea mays); [12]) was 100, the “Plant response rating, Corn” value (corn (Zea mays); [13]) was 70 and the “Plant response rating, Corn” value (corn (Zea mays); [14]) was 90. For the same compound, the “Plant response rating, Velvetleaf” value [6, 11] was 0, the “Plant response rating, Velvetleaf” value [6, 12] was 0 and the “Plant response rating, Velvetleaf” value [6, 13] was 0. The “Plant response rating, Velvetleaf” value [6, 14] was 0, the “Plant response rating, Crabgrass, Large” value [7, 11] was 100 and the “Plant response rating, Crabgrass, Large” value [7, 12] was 100. For the same compound, the “Plant response rating, Crabgrass, Large” value [7, 13] was 80, the “Plant response rating, Crabgrass, Large” value [7, 14] was 100 and the “Nutsedge, Yellow plant response rating” value [8, 15] was 0. The “Nutsedge, Yellow plant response rating” value ([8]; 16 g ai/ha, postemergence, 0-100 scale) was 0, the “Plant response rating, Nutsedge, Yellow” value [8, 16] was 0 and the “Plant response rating, Nutsedge, Yellow” value [8, 17] was 0. The “Plant response rating, Nutsedge, Yellow” value [8, 18] was 0, the “Plant response rating, Nutsedge, Yellow” value [8, 19] was 0 and the “Nutsedge, Yellow plant response rating” value [8, 20] was 0. For the same compound, the “Nutsedge, Yellow plant response rating” value ([8]; Preemergence, 16 g ai/ha, scale 0 to 100) was 0, the “Plant response rating, Galium” value ([9]; 31 g ai/ha, scale 0 to 100 (0 no effect, 100 complete control)) was 0 and the “Plant response rating, Galium” value ([9]; 62 g ai/ha, 0 to 100 scale, 0 no effect, 100 complete control) was 0. For the same compound, the “Galium plant response rating” value ([9]; scale 0 to 100) was 0, the “Blackgrass plant response rating” value ([10]; postemergence, 0-100 scale) was 85 and the “Plant response rating, Blackgrass” value [10, 21] was 100. The “Plant response rating, Blackgrass” value [10, 16] was 100, the “Plant response rating, Blackgrass” value [10, 17] was 100 and the “Plant response rating, Blackgrass” value [10, 22] was 100. For the same compound, the “Plant response rating, Blackgrass” value [10, 18] was 100, the “Plant response rating, Blackgrass” value [10, 19] was 100 and the “Blackgrass plant response rating” value ([10]; Preemergence, scale 0 to 100) was 40.

In the case of `Cc1cc(-c2ccc(Cl)cc2)nn1-c1c(OC(=O)C(C)C)cnn(C)c1=O` [Compound 34], the “Plant response rating, Wheat” value [1, 11] is reported as 40, the “Plant response rating, Wheat” value [1, 12] is reported as 60 and the “Plant response rating, Wheat” value [1, 13] is reported as 30. For the same compound, the “Plant response rating, Wheat” value [1, 14] was 70, the “Plant response rating, Morningglory” value [2, 11] was 0 and the “Plant response rating, Morningglory” value [2, 12] was 0. For the same compound, the “Plant response rating, Morningglory” value [2, 13] was 0, the “Plant response rating, Morningglory” value [2, 14] was 0 and the “Plant response rating, Barnyardgrass” value [3, 11] was 90. For the same compound, the “Plant response rating, Barnyardgrass” value [3, 12] was 100, the “Plant response rating, Barnyardgrass” value [3, 13] was 70 and the “Plant response rating, Barnyardgrass” value [3, 14] was 100. For the same compound, the “Plant response rating, Pigweed” value [4, 11] was 0, the “Plant response rating, Pigweed” value [4, 12] was 10 and the “Plant response rating, Pigweed” value [4, 13] was 0. The “Plant response rating, Pigweed” value [4, 14] was 0, the “Plant response rating, Foxtail, Giant” value [5, 11] was 90 and the “Plant response rating, Foxtail, Giant” value [5, 12] was 100. The “Plant response rating, Foxtail, Giant” value [5, 13] was 100, the “Plant response rating, Foxtail, Giant” value [5, 14] was 100 and the “Plant response rating, Corn” value (corn (Zea mays); [11]) was 70. The “Plant response rating, Corn” value (corn (Zea mays); [12]) was 90, the “Plant response rating, Corn” value (corn (Zea mays); [13]) was 20 and the “Plant response rating, Corn” value (corn (Zea mays); [14]) was 60. The “Plant response rating, Velvetleaf” value [6, 11] was 0, the “Plant response rating, Velvetleaf” value [6, 12] was 0 and the “Plant response rating, Velvetleaf” value [6, 13] was 0. For the same compound, the “Plant response rating, Velvetleaf” value [6, 14] was 0, the “Plant response rating, Crabgrass, Large” value [7, 11] was 70 and the “Plant response rating, Crabgrass, Large” value [7, 12] was 100. The “Plant response rating, Crabgrass, Large” value [7, 13] was 80, the “Plant response rating, Crabgrass, Large” value [7, 14] was 90 and the “Nutsedge, Yellow plant response rating” value [8, 15] was 0. For the same compound, the “Plant response rating, Nutsedge, Yellow” value [8, 21] was 0, the “Plant response rating, Nutsedge, Yellow” value [8, 23] was 0 and the “Plant response rating, Nutsedge, Yellow” value [8, 17] was 0. The “Plant response rating, Nutsedge, Yellow” value [8, 22] was 0, the “Plant response rating, Nutsedge, Yellow” value [8, 24] was 0 and the “Plant response rating, Nutsedge, Yellow” value [8, 25] was 0. For the same compound, the “Nutsedge, Yellow plant response rating” value [8, 20] was 0, the “Plant response rating, Galium” value ([9]; 16 g ai/ha, scale 0 to 100 (0 no effect, 100 complete control)) was 0 and the “Plant response rating, Galium” value ([9]; 31 g ai/ha, 0 to 100 scale, 0 no effect, 100 complete control) was 0. The “Plant response rating, Galium” value ([9]; 62 g ai/ha, scale 0 to 100) was 0, the “Galium plant response rating” value ([9]; scale 0 to 100) was 0 and the “Blackgrass plant response rating” value ([10]; postemergence, 0-100 scale) was 0. The “Plant response rating, Blackgrass” value [10, 21] was 75, the “Plant response rating, Blackgrass” value [10, 23] was 75 and the “Plant response rating, Blackgrass” value [10, 17] was 90. For the same compound, the “Plant response rating, Blackgrass” value [10, 22] was 85, the “Plant response rating, Blackgrass” value [10, 24] was 100 and the “Plant response rating, Blackgrass” value [10, 25] was 100. The “Blackgrass plant response rating” value ([10]; Preemergence, scale 0 to 100) was 0.
